Data taken from patent US20210255193A1, “LYSINE REACTIVE PROBES AND USES THEREOF” (The Scripps Research Institute, priority 2017, published 2021).

Experiments:
Test in all cases: competitive isoTOP-ABPP
Assay type in all cases: binding
EEF2 Elongation factor 2 = molecular target: T1, EEF2 Elongation factor 2 (Homo sapiens, UniProt P13639)
T1 construct: isoTOP-ABPP experiments performed in cell lysates (in vitro); endogenous in cells; host or cells: soluble proteome of human cancer cell lines (MDA-MB-231; Ramos and Jurkat also prepared)
In short: (§1)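 Lysate + fragment (50 μM activated ester / 100 μM guanidinylating agent) or DMSO → 0.1 mM STP-alkyne, 1 h, RT → CuAAC to TEV tags (compound light, DMSO heavy) → LC-MS. R = heavy/light MS1 area; liganded lysine if R≥4.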

[1] = molecular target: T2, NPEPPS Puromycin-sensitive aminopeptidase (Homo sapiens, UniProt P55786)
T2 construct: isoTOP-ABPP experiments performed in cell lysates (in vitro); endogenous in cells; host or cells: soluble proteome of human cancer cell lines (MDA-MB-231, Ramos, Jurkat)
In short: as §1

[2] = molecular target: T3, UCHL5 Ubiquitin carboxyl-terminal hydrolase isozyme L5 (Homo sapiens, UniProt Q9Y5K5)
T3 construct: endogenous in cells; host or cells: MDA-MB-231 (soluble fraction of lysate)
T3 sequence (Q9Y5K5 1-329): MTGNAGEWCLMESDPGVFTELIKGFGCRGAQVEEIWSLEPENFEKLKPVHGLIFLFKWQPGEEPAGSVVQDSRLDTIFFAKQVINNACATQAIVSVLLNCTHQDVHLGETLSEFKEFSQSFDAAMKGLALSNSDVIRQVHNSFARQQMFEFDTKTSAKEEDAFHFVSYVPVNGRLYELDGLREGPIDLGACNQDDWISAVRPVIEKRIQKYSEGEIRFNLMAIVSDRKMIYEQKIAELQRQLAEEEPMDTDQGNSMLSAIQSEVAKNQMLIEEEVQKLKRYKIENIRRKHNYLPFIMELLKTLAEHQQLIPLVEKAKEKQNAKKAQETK
In short: as §1

[3] = molecular target: T4, GOLGB1 Golgin subfamily B member 1 (Homo sapiens, UniProt Q14789)
T4 construct: isoTOP-ABPP experiments performed in cell lysates (in vitro); endogenous in cells; host or cells: soluble proteome of human cancer cell lines (MDA-MB-231, Ramos, Jurkat)
In short: as §1

FAH Fumarylacetoacetase = molecular target: T5, FAH Fumarylacetoacetase (Homo sapiens, UniProt P16930)
T5 construct: isoTOP-ABPP experiments performed in cell lysates (in vitro); endogenous in cells; host or cells: soluble proteome of human cancer cell lines (MDA-MB-231; Ramos and Jurkat also prepared)
T5 sequence (P16930 1-419): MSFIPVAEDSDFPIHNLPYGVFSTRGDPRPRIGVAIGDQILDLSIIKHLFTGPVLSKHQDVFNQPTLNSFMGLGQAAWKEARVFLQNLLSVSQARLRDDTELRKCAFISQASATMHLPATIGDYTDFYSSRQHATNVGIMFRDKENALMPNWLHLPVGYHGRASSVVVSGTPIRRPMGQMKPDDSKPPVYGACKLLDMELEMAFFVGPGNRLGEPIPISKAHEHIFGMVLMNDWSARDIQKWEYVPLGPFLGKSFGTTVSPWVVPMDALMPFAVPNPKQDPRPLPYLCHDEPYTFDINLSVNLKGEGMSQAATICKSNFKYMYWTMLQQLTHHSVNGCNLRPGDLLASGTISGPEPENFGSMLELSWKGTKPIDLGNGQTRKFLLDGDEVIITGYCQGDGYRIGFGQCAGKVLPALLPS
In short: as §1

[4] = molecular target: T6, PNPO Pyridoxine-5-phosphate oxidase (Homo sapiens, UniProt Q9NVS9)
T6 construct: endogenous in cells; host or cells: MDA-MB-231 (soluble fraction of lysate)
T6 sequence (Q9NVS9 1-261): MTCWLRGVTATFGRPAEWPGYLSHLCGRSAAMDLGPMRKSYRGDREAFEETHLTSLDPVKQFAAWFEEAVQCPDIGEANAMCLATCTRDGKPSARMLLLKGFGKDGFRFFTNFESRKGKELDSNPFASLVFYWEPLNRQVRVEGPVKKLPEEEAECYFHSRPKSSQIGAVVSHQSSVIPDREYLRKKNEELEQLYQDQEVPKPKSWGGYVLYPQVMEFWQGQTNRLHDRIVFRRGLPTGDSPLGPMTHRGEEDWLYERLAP
In short: as §1

T4 sequence (Q14789 whole entry): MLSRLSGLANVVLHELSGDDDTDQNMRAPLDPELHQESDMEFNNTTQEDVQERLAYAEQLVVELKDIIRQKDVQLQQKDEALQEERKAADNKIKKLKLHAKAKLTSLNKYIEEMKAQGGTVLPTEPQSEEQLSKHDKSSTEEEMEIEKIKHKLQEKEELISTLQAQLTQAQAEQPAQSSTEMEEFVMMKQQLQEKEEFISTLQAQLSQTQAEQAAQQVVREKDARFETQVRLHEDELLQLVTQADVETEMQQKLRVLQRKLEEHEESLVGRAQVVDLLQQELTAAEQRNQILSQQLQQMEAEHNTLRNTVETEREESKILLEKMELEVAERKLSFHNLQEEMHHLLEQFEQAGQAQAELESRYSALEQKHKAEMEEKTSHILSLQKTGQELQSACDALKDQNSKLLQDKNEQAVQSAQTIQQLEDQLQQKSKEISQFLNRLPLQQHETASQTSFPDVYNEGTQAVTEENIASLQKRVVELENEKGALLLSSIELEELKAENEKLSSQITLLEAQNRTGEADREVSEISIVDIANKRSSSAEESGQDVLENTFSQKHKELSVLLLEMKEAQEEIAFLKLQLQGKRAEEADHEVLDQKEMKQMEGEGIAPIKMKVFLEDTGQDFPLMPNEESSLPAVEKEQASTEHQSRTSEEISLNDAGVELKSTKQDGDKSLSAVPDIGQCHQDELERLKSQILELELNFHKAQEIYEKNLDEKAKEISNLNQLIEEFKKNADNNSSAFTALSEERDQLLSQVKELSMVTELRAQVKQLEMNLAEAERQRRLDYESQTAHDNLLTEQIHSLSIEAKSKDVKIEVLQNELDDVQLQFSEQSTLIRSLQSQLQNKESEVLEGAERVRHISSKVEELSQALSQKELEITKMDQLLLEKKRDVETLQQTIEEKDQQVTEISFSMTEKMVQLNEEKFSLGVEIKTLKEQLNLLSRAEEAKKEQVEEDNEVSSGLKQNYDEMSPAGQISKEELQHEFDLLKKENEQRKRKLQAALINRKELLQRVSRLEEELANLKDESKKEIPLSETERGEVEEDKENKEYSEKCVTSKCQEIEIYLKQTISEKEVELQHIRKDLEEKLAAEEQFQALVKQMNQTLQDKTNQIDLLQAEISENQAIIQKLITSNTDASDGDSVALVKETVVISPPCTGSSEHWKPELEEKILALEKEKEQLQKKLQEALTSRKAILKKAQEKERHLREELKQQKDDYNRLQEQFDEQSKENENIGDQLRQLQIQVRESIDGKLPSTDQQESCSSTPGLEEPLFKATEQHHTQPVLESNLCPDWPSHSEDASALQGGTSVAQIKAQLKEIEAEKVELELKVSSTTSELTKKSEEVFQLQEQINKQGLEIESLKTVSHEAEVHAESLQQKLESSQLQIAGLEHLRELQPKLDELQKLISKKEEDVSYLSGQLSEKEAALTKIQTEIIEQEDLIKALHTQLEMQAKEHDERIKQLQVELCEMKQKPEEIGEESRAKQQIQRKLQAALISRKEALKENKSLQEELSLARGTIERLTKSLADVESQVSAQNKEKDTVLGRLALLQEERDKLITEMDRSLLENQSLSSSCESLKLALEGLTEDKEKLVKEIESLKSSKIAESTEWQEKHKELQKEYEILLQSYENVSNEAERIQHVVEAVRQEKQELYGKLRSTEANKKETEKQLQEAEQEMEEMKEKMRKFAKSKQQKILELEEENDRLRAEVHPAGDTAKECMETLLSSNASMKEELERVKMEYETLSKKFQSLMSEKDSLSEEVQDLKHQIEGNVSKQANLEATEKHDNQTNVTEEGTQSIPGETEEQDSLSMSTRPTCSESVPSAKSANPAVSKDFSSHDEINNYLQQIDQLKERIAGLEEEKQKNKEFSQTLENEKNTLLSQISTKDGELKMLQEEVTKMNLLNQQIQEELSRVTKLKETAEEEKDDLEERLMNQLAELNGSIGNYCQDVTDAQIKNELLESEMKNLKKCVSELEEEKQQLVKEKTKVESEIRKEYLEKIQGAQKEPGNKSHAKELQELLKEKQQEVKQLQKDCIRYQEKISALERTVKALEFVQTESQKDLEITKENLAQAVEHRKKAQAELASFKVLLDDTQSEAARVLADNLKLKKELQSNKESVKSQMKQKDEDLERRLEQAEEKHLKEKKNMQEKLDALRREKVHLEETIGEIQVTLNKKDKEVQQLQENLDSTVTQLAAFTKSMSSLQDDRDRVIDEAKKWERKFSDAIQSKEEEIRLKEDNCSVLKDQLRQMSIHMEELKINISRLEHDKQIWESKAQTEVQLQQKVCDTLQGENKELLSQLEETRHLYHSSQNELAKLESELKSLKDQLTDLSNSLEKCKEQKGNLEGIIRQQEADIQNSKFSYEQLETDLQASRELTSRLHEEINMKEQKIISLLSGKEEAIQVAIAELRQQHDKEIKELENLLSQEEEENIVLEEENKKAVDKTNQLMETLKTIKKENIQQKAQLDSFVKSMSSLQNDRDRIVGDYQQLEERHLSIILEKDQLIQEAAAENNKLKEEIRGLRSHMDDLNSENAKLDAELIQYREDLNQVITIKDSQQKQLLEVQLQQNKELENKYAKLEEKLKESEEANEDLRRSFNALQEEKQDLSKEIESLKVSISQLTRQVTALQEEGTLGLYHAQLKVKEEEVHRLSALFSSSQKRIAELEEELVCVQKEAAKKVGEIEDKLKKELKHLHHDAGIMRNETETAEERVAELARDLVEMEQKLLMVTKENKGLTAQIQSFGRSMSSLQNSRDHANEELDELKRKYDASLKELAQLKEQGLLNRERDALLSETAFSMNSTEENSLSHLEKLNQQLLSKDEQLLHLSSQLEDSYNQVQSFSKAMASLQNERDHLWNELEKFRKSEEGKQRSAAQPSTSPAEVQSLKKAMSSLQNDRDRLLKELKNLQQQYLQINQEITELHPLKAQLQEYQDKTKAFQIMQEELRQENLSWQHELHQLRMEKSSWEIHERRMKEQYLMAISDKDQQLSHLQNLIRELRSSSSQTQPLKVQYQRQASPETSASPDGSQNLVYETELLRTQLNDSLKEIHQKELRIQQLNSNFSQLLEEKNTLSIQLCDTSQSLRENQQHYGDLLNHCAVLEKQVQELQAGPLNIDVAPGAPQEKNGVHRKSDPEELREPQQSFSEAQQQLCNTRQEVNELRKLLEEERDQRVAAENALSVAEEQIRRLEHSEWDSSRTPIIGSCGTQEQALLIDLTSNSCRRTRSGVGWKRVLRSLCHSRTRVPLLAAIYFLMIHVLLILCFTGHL
T2 sequence (P55786 whole entry): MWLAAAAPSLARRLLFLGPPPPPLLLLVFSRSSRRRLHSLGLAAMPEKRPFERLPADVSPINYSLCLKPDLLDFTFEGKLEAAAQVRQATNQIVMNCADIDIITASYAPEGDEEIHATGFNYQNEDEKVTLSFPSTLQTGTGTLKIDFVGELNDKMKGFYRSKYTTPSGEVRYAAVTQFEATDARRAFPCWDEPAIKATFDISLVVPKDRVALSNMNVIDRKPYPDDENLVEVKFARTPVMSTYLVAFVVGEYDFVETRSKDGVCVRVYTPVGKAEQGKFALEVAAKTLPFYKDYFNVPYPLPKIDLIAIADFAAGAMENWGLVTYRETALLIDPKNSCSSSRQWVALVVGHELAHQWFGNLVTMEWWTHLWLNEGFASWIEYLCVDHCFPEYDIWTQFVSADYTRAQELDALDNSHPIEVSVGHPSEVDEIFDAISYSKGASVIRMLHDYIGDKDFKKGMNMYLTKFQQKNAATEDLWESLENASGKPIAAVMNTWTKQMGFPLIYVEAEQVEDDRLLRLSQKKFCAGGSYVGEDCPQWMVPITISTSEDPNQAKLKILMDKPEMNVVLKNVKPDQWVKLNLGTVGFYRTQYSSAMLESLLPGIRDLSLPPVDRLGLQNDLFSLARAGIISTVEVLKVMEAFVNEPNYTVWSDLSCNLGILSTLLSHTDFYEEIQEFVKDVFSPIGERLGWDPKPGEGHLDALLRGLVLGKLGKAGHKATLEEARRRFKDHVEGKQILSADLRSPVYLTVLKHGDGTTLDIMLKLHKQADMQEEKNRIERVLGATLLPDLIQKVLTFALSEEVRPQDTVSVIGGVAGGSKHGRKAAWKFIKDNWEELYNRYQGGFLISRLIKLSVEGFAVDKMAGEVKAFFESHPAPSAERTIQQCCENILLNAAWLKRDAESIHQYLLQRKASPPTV

SMILES	isoTOP-ABPP ratio, lysine P13639_K235 (EEF2 Elongation factor 2; 50 uM_231_sol_in vitro)	isoTOP-ABPP ratio, lysine P13639_K318 (EEF2 Elongation factor 2; 50 uM_231_sol_in vitro)	isoTOP-ABPP ratio, lysine P55786_K712 ([1]; 50 uM_231_sol_in vitro)	isoTOP-ABPP ratio, lysine Q9Y5K5_K323 ([2]; 50 uM_231_sol_in vitro)	isoTOP-ABPP ratio, lysine Q14789_K103 ([3]; 50 uM_231_sol_in vitro)	isoTOP-ABPP ratio, lysine P16930_K241 (FAH Fumarylacetoacetase; 50 uM_231_sol_in vitro)	isoTOP-ABPP ratio, lysine Q9NVS9_K100 ([4]; 50 uM_231_sol_in vitro)	isoTOP-ABPP ratio, lysine P13639_K235 (EEF2 Elongation factor 2; 100 uM_231_sol_in vitro)	isoTOP-ABPP ratio, lysine P13639_K318 (EEF2 Elongation factor 2; 100 uM_231_sol_in vitro)	isoTOP-ABPP ratio, lysine P55786_K712 ([1]; 100 uM_231_sol_in vitro)	isoTOP-ABPP ratio, lysine Q9Y5K5_K323 ([2]; 100 uM_231_sol_in vitro)	isoTOP-ABPP ratio, lysine Q14789_K103 ([3]; 100 uM_231_sol_in vitro)	isoTOP-ABPP ratio, lysine P16930_K241 (FAH Fumarylacetoacetase; 100 uM_231_sol_in vitro)	isoTOP-ABPP ratio, lysine Q9NVS9_K100 ([4]; 100 uM_231_sol_in vitro)
O=C(Oc1c(F)c(F)cc(F)c1F)c1cc(C(F)(F)F)cc(C(F)(F)F)c1 [fragment 48, 2,3,5,6-Tetrafluorophenyl 3,5-bis(trifluoromethyl)benzoate]	1.2	1.1	1.0	0.9	1.1	2.3	0.9							
COC(=O)NC(=NC(=O)OCC1c2ccccc2-c2ccccc21)n1cccn1 [fragment 49, N-Methoxycarbonyl-N′-9-fluorenylmethoxycarbonyl-pyrazole-1-carboxamidine]								6.2	2.0	1.3	9.0	1.8	1.3	3.3
CC(C)(C)OC(=O)N=C(NC(=O)OC(C)(C)C)n1cccn1 [fragment 50, reference compound]								7.5	1.8	1.6	2.2	1.4	1.5	1.1
NC(=O)c1cc(C(F)(F)F)cc(C(F)(F)F)c1 [fragment 51, reference compound]	0.9	0.9	1.0	1.0	0.9	0.9	0.9							
